Data: patent publication US20260034124A1, “NOVEL SALTS AND CRYSTALS” (INTRA-CELLULAR THERAPIES, INC., priority 2022, published 2026)
Where two headings read alike, the source gives them in different places.

Experiments:
[1] = Aqueous solubility determination, saturated solution shaken in water, LC; type: physicochemical; conditions: slurried 24 hours, filtered
Experimental: The aqueous solubility of the successfully reproduced salts is determined by shaking a saturated solution in water. The solubility at pH 7.4 is determined by shaking a saturated solution in a phosphate buffered system. The samples are prepared by the addition of a known amount of water (100-200 μl) and subsequent slurrying with the solid for 24 hours. All samples are then filtered using syringe filters to remove undissolved solids, and then the filtrates are diluted with methanol/acetonitrile (1:1 v/v). LC analysis of the samples is performed, and a calibration line is used for the determination of the solubilities.

[2] = target: H1 histaminergic (Homo sapiens, UniProt P35367); conditions: cited from earlier work
Sequence of H1 histaminergic (P35367 whole entry): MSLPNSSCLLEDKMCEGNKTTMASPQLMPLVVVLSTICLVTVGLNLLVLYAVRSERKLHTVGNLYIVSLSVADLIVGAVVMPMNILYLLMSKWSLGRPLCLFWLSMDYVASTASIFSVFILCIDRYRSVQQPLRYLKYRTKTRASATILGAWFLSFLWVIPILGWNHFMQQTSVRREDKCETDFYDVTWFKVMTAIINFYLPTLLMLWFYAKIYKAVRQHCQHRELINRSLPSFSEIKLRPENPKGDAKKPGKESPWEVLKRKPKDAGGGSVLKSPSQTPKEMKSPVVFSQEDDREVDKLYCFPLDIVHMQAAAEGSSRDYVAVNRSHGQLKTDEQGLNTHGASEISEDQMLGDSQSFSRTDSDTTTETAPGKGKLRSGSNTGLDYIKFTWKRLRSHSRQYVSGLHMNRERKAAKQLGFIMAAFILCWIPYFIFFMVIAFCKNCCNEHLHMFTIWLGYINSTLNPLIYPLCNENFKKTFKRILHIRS

[3] = target: T1, 5-HT2C (Homo sapiens, UniProt P28335); conditions: cited from earlier work
T1 sequence (P28335 33-458): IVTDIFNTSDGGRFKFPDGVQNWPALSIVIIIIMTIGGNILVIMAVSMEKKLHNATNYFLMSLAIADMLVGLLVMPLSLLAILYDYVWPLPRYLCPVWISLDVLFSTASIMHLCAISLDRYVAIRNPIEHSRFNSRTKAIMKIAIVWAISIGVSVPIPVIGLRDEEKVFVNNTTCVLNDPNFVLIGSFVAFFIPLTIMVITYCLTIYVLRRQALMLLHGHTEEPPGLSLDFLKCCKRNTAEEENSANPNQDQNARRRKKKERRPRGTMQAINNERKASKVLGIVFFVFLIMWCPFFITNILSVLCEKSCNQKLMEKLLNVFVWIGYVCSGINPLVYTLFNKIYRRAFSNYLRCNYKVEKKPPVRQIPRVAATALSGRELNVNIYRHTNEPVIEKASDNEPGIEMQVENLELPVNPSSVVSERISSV

[4] = test system: muscarinic; conditions: cited from earlier work
[5] = free base form, cited from earlier work

SMILES | Aqueous Solubility [1] [mg/mL] | further results
CC(C)(C)c1ccc(S(=O)(=O)O)cc1.CN1CCN2c3c(cccc31)[C@@H]1CN(CCCC(=O)c3ccc(F)cc3)CC[C@@H]12 [4-t-butylbenzenesulfonate salt, lumateperone 4-tert-butylbenzenesulfonate salt] | 0.77 | 
CCCCCCCCc1ccc(S(=O)(=O)O)cc1.CN1CCN2c3c(cccc31)[C@@H]1CN(CCCC(=O)c3ccc(F)cc3)CC[C@@H]12 [4-octylbenzenesulfonate salt, lumateperone 4-octylbenzenesulfonate salt] | 0.006 | 
CCCCCCCS(=O)(=O)O.CN1CCN2c3c(cccc31)C1CN(CCCC(=O)c3ccc(F)cc3)CCC12 (stereo not shown) [Example 9, lumateperone heptane-1-sulfonic salt] | 4.30 | 
CCCCCS(=O)(=O)O.CN1CCN2c3c(cccc31)C1CN(CCCC(=O)c3ccc(F)cc3)CCC12 (stereo not shown) [Example 8, lumateperone pentane-1-sulfonic salt] | 18.77 | 
CN1CCN2c3c(cccc31)[C@@H]1CN(CCCC(=O)c3ccc(F)cc3)CC[C@@H]12 [Lumateperone, 4-((6bR,10aS)-3-methyl-2,3,6b,9,10,10a-hexahydro-1H-pyrido[3′,4′: 4,5]pyrrolo[1,2,3-de]quinoxalin-8(7H)-yl)-1-(4-fluorophenyl)-1-butanone] |  | binding to H1 histaminergic receptors [2]: negligible binding; binding to 5-HT2C receptors [3]: negligible binding; binding to muscarinic receptors [4]: negligible binding; aqueous solubility of free base (in words) ([5]; listed as ITI-007): poor aqueous solubility; aqueous solubility of free base (in words) ([5]; listed as Lumateperone free base): very low water-solubility
CCCc1ccc(S(=O)(=O)O)cc1.CN1CCN2c3c(cccc31)[C@@H]1CN(CCCC(=O)c3ccc(F)cc3)CC[C@@H]12 [Example 4, lumateperone 4-propylbenzenesulfonate salt] | 1.62 | 
